A short description of this series: Test Example 4: sirolimus in blood of the patients. It counts as in vivo, human. The settings on record: Patients A, B, C; 0.2% sirolimus gel applied to lesion twice a day for 12 weeks; not detected, measurement limit value. As to the method:
The gel containing 0.2 wt % of sirolimus produced in Production Example 3 (hereinafter referred to as 0.2% sirolimus gel) was applied to a lesion portion twice a day for 12 weeks. An approximate size of an application target lesion was measured to determine a single application amount. The application amount was set to about 125 mg of gel per 50 cm^2. In the sirolimus gel treatment period (12 weeks), no combined medicine was used, and no combination therapy was performed.
Sirolimus was not detected from the blood of any of the patients (measurement limit value: 1.0 ng/mL).

Structures are written as SMILES.

As to `CO[C@H]1C[C@@H]2CC[C@@H](C)[C@@](O)(O2)C(=O)C(=O)N2CCCC[C@H]2C(=O)O[C@H]([C@H](C)C[C@@H]2CC[C@@H](O)[C@H](OC)C2)CC(=O)[C@H](C)/C=C(\C)[C@@H](O)[C@@H](OC)C(=O)[C@H](C)C[C@H](C)/C=C/C=C/C=C/1C` [Sirolimus, sirolimus], the sirolimus in blood is recorded as < 1.0 ng/mL.
